Source: the supplement of paper PMC10307832

Columns and labels:
Assay in all cases: relative viability (nuclei count vs DMSO), 5 days (fraction); higher = more cells survive
Veliparib + Foretinib = compound: C[C@]1(c2nc3c(C(N)=O)cccc3[nH]2)CCCN1 [Veliparib] + COc1cc2c(Oc3ccc(NC(=O)C4(C(=O)Nc5ccc(F)cc5)CC4)cc3F)ccnc2cc1OCCCN1CCOCC1 [Foretinib] (partner 0.25 µM)
Procedure, shortened: (§1)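 The day after seeding in 1536-well plates, lung cancer cell lines were treated by pin tool with a single drug, or with a fixed anchor-drug dose together with five library-drug doses (not always all listed) in √10 steps. After 5 days, a combined fix-and-stain solution (final 0.05% Triton X-100, 1% formaldehyde, 1 ug/ml Hoechst) was added. Nuclei counted on 4× images gave relative viability as treated counts over vehicle counts, reported as the median of duplicate plates.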

Veliparib + Phenformin = compound: C[C@]1(c2nc3c(C(N)=O)cccc3[nH]2)CCCN1 [Veliparib] + N=C(N)NC(=N)NCCc1ccccc1 [Phenformin] (partner 250 µM)
Procedure, shortened: as §1

[1] = compound: COC1=CC=C(C=C1)CN2C=CC3=C2C=C(C=C3)C(=O)NO + Cc1nc(NC(=O)N2CCC[C@H]2C(N)=O)sc1-c1ccnc(C(C)(C)C(F)(F)F)c1 [Alpelisib] (partner 2 µM)
Procedure, shortened: as §1

[2] = compound: COC1=CC=C(C=C1)CN2C=CC3=C2C=C(C=C3)C(=O)NO + Cc1nc(Nc2ncc(C(=O)Nc3c(C)cccc3Cl)s2)cc(N2CCN(CCO)CC2)n1 [Dasatinib] (partner 0.075 µM)
Procedure, shortened: as §1

Cell Line | relative viability (Veliparib + Foretinib; first compound 0.02 µM) | relative viability (Veliparib + Foretinib; first compound 0.06325 µM) | relative viability (Veliparib + Foretinib; first compound 0.2 µM) | relative viability (Veliparib + Foretinib; first compound 0.6325 µM) | relative viability (Veliparib + Foretinib; first compound 2 µM) | relative viability (Veliparib + Phenformin; first compound 0.02 µM) | relative viability (Veliparib + Phenformin; first compound 0.06325 µM) | relative viability (Veliparib + Phenformin; first compound 0.2 µM) | relative viability (Veliparib + Phenformin; first compound 0.6325 µM) | relative viability (Veliparib + Phenformin; first compound 2 µM) | relative viability ([1]; first compound 0.08 µM) | relative viability ([1]; first compound 0.253 µM) | relative viability ([1]; first compound 0.8 µM) | relative viability ([1]; first compound 2.53 µM) | relative viability ([1]; first compound 8 µM) | relative viability ([2]; first compound 0.08 µM) | relative viability ([2]; first compound 0.253 µM) | relative viability ([2]; first compound 0.8 µM) | relative viability ([2]; first compound 2.53 µM) | relative viability ([2]; first compound 8 µM)
NCI-H3122 | 1 | 0.926 | 0.912 | 0.943 | 0.966 | 0.335 | 0.345 | 0.384 | 0.357 | 0.387 | 0.613 | 0.88 | 0.828 | 0.87 | 0.701 | 0.864 | 0.869 | 0.86 | 0.741 | 0.527
PC-3 [JPC-3] | 1.01 | 1.06 | 0.968 | 0.975 | 0.983 | 0.471 | 0.478 | 0.498 | 0.469 | 0.495 | 1.02 | 1.02 | 1.01 | 1.13 | 1.02 | 0.986 | 0.974 | 1.06 | 1.13 | 1.03
PC-14 | 0.965 | 0.939 | 0.999 | 0.922 | 0.923 | – | 0.526 | 0.647 | 0.59 | 0.435 | 0.883 | 0.856 | 0.96 | 1.02 | 0.985 | 0.236 | 0.248 | 0.292 | 0.26 | 0.178
RERF-LC-KJ | 0.881 | 0.807 | 0.879 | 0.888 | 0.889 | 0.408 | 0.442 | 0.4 | 0.396 | 0.47 | 0.765 | 0.796 | 0.83 | 0.95 | 0.83 | 0.839 | 0.867 | 0.761 | 0.829 | 0.751
SK-LU-1 | 0.874 | 0.756 | 0.899 | 0.644 | 0.902 | 0.588 | 0.524 | 0.544 | 0.512 | 0.506 | 1.01 | 1.04 | 1.11 | 1.11 | 0.81 | 0.161 | 0.154 | 0.198 | 0.21 | 0.164
SK-MES-1 | 1 | 0.799 | 0.995 | 0.837 | 1.01 | 0.707 | 0.626 | 0.628 | 0.599 | 0.663 | 0.924 | 0.946 | 0.861 | 0.76 | 0.823 | 0.475 | 0.363 | 0.542 | 0.396 | 0.262
UMC-11 | 1.29 | 0.959 | 0.998 | 0.948 | 1.02 | 0.334 | 0.316 | 0.312 | 0.284 | 0.314 | 0.526 | 0.986 | 0.92 | 1.12 | 1.05 | – | 0.454 | 0.422 | 0.471 | 0.44
